In patent US10562912B2 (C&C Research Laboratories, priority 2013, dated 2020):

How the values were obtained:
Type in all cases: cell-based
STAT3 = target: T1, STAT3 (Homo sapiens, UniProt P40763); experiment: STAT3 reporter gene assay (luciferase), LNCaP stable cell line (pSTAT3-TA-luc), IL-6 stimulation
T1 construct: plasmid pSTAT3-TA-luc), which contains a stably operating STAT3 promoter; endogenous in cells
In short: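 LNCaP cells stably carrying pSTAT3-TA-luc, in RPMI1640 with 3% DCC-FBS, were treated with compound and then stimulated with 10 ng/mL IL-6 for 24–48 h at 37 °C. Luciferase activity was measured in lysates. A parallel plate measured viability by CellTiter-Glo, with stimulated 0.1% DMSO wells as the positive control.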

MDA-MB-231 = experiment: Cell growth inhibition assay, breast cancer cell line MDA-MB-231; conditions: Homo sapiens; MDA-MB-231 breast cancer cell line, 5,000 cells/well
Experimental: The inhibitory effects of the compounds of the present invention against the growth of cancer cells were evaluated as shown below. The cancer cell lines including stomach cancer cell line (AGS), breast cancer cell lines (MDA-MB-231, MDA-MB-468, and BT-549), prostate cancer cell lines (LNCaP and DU-145), colon cancer cell line (HCT116), ovarian cancer cell line (SW626), liver cancer cell line (Hep3B), kidney cancer cell line (ACHN), lung cancer cell line (NCI-H23) and blood cancer cell lines (HEL92.1.7 and U266) were cultured under the protocol provided by each supplier. A medium supplemented with 10 ng/mL of IL-6 was used for LNCaP, a prostate cancer cell line, when treated with a drug. Each type of cells to be used in experiments were sub-cultured in a 96-well plate by counting the exact number of cells using Tali™ Image-based Cytometer (Life Technologies). In a 96-well plate, AGS, HCT116, and DU-145 were employed with 3,000 cells/well; NCI-H23, SW626, Hep3B, ACHN, BT-549, MDA-MB-231, HEL92.1.7, and U266 were employed with 5,000 cells/well; and LNCaP and MDA-MB-468 were employed with 10,000 cells/well. The cells were treated with the compounds listed in Examples which were diluted in various concentrations. Upon completion of the compounds treatment, AGS, HCT116, SW626, DU145, NCI-H23, Hep3B, ACHN, BT-549, LNCaP, HEL92.1.7, and U266 cells were cultured at 37° C. under 5% CO2 for from 72 to 96 hours, and MDA-MB-231 and MDA-MB-468 cells were cultured at 37° C. in air for from 72 to 96 hours. Subsequently, the cells were observed under microscope and drug precipitation and particular findings were investigated and recorded. And then, the 96-well plate was placed at room temperature for 30 minutes, added with 20 μL/well of CellTiter-Glo solution (Cat No. G7573, Promega) and shaken for 10 minutes, followed by being subjected to the measurement using PHERAstar™ microplate reader (BMG LABTECH) according to the supplier's general luminometer protocol. Wells where only culture liquid added without cell plating were used as a negative control, whereas wells where culture liquid containing 0.1% DMSO instead of the compounds listed in Examples were used as a positive control.

LNCaP = experiment: Cell growth inhibition assay, prostate cancer cell line LNCaP (medium with 10 ng/mL IL-6); conditions: Homo sapiens, medium supplemented with 10 ng/mL of IL-6, 10,000 cells/well

T1 sequence (P40763 whole entry): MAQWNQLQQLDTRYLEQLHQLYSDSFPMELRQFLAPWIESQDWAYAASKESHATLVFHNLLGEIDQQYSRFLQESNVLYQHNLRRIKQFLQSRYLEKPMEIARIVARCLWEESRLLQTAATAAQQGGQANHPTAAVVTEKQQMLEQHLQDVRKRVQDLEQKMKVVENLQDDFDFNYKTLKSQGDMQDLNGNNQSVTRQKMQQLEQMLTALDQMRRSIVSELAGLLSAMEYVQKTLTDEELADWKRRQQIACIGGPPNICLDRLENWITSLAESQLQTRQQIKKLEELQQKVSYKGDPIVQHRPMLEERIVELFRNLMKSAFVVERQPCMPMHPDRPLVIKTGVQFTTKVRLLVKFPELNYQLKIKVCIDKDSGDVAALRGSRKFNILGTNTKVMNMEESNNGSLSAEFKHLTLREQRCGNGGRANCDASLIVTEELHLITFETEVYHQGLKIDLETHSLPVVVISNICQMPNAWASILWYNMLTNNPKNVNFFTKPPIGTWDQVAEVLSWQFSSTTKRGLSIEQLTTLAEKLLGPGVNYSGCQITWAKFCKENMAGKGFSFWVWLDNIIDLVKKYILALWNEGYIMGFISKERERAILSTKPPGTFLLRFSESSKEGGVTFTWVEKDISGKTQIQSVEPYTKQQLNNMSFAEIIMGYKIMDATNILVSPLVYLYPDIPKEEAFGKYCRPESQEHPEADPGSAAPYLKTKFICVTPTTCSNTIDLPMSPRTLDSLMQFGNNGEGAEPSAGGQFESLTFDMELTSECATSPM

| IC50 (STAT3) | IC50 (MDA-MB-231) | IC50 (LNCaP) | Compound |
| --- | --- | --- | --- |
| 6.8 µM | 8.4 µM | > 10 µM | CS(=O)(=O)Nc1ccc2cc(C(=O)Nc3cccc(S(=O)(=O)c4cccc(N)c4)c3)[nH]c2c1 [Example 415, N-(3-((3-aminophenyl)sulfonyl)phenyl)-6-(methylsulfonamido)-1H-indole-2-carboxamide] |
| 1.3 µM | 0.38 µM | 4.4 µM | CC(C)(Oc1cccc(C(C)(C)c2cc(Br)cc(NC(=O)c3cc4cc(NS(C)(=O)=O)ccc4s3)c2)c1)C(N)=O [Example 45, N-(3-(2-(3-((1-amino-2-methyl-1-oxopropan-2-yl)oxy)phenyl)propan-2-yl)-5-bromophenyl)-5-(methylsulfonamido)benzo[b]thiophene-2-carboxamide] |
| 0.14 µM | 0.19 µM | 0.92 µM | CC(C)(c1ccc(F)cc1)c1cc(NC(=O)c2cc3ccc(NS(C)(=O)=O)cc3[nH]2)cc(OC(F)F)c1 [Example 17, N-(3-(difluoromethoxy)-5-(2-(4-fluorophenyl)propan-2-yl)phenyl)-6-(methylsulfonamido)-1H-indole-2-carboxamide] |
| 1.3 µM | 0.88 µM | 2.4 µM | CS(=O)(=O)Nc1ccc2cc(C(=O)Nc3cc(CC#N)cc(-c4ccc(F)cc4F)c3)[nH]c2c1 [Example 363, N-(5-(cyanomethyl)-2′,4′-difluoro-[1,1′-biphenyl]-3-yl)-6-(methylsulfonamido)-1H-indole-2-carboxamide] |
| 1.7 µM | 1.2 µM | 6.6 µM | CS(=O)(=O)Nc1ccc2cc(C(=O)Nc3cc(-c4cccnc4)cc(-c4ccc(F)cc4F)c3)[nH]c2c1 [Example 357, N-(2′,4′-difluoro-5-(pyridin-3-yl)-[1,1′-biphenyl]-3-yl)-6-(methylsulfonamido)-1H-indole-2-carboxamide] |
| 1.5 µM | 1 µM | 4.4 µM | CNc1cc(NC(=O)c2cc3ccc(NS(C)(=O)=O)cc3[nH]2)cc(-c2ccc(F)cc2F)c1 [Example 373, N-(2′,4′-difluoro-5-(methylamino)-[1,1′-biphenyl]-3-yl)-6-(methylsulfonamido)-1H-indole-2-carboxamide] |
| 0.13 µM | 0.085 µM | 0.41 µM | COc1cc(NC(=O)c2cc3cc(NS(C)(=O)=O)ccc3s2)cc(C2(c3cc(OC)cc(OC(F)(F)F)c3)CC2)c1 [Example 427, N-(3-methoxy-5-(1-(3-methoxy-5-(trifluoromethoxy)phenyl)cyclopropyl)phenyl)-5-(methylsulfonamido)benzo[b]thiophene-2-carboxamide] |
| 0.22 µM | 0.09 µM | 1.1 µM | COc1cc2cc(C(=O)Nc3cccc(C(C)(C)c4ccc(F)cc4)c3)[nH]c2cc1NS(C)(=O)=O [Example 3, N-(3-(2-(4-fluorophenyl)propan-2-yl)phenyl)-5-methoxy-6-(methylsulfonamido)-1H-indole-2-carboxamide] |
| 0.26 µM | 0.033 µM | 0.27 µM | CC(C)(c1cccc(C#N)c1)c1cccc(NC(=O)c2cc3cc(NS(C)(=O)=O)ccc3s2)c1 [Example 224, N-(3-(2-(3-cyanophenyl)propan-2-yl)phenyl)-5-(methylsulfonamido)benzo[b]thiophene-2-carboxamide] |
| 0.11 µM | 0.01 µM | 0.61 µM | CS(=O)(=O)Nc1ccc2sc(C(=O)Nc3cccc(-c4ccc(F)cc4F)c3)cc2c1 [Example 237, N-(2′,4′-difluoro-[1,1′-biphenyl]-3-yl)-5-(methylsulfonamido)benzo[b]thiophene-2-carboxamide] |
| 6.4 µM | 2.7 µM | 9.9 µM | CS(=O)(=O)Nc1ccc2cc(C(=O)Nc3cc(-c4ccc(F)cc4F)cc(N4CCOCC4)c3)[nH]c2c1 [Example 374, N-(2′,4′-difluoro-5-morpholino-[1,1′-biphenyl]-3-yl)-6-(methylsulfonamido)-1H-indole-2-carboxamide] |
| 0.2 µM | 0.089 µM | 1.1 µM | CS(=O)(=O)Nc1ccc2sc(C(=O)Nc3cccc(C4(c5ccccc5)CC4)c3)cc2c1 [Example 421, 5-(methylsulfonamido)-N-(3-(1-phenylcyclopropyl)phenyl)benzo[b]thiophene-2-carboxamide] |
| 0.3 µM | 9.9 µM | > 10 µM | CS(=O)(=O)Nc1ccc2cc(C(=O)Nc3cc(-c4cc[nH]n4)cc(-c4ccc(F)cc4F)c3)[nH]c2c1 [Example 351, N-(2′,4′-difluoro-5-(1H-pyrazol-3-yl)-[1,1′-biphenyl]-3-yl)-6-(methylsulfonamido)-1H-indole-2-carboxamide] |
| > 10 µM | 8.6 µM | > 10 µM | CC(C)(c1cccc(CN2CCNCC2)c1)c1cc(Br)cc(NC(=O)c2cc3cc(NS(C)(=O)=O)ccc3s2)c1 [Example 118, N-(3-bromo-5-(2-(3-(piperazin-1-ylmethyl)phenyl)propan-2-yl)phenyl)-5-(methylsulfonamido) benzo[b]thiophene-2-carboxamide] |
| 5.2 µM | 1.3 µM | 7.7 µM | CN(C)c1cc(NC(=O)c2cc3cc(NS(C)(=O)=O)ccc3o2)cc(-c2ccc(F)cc2F)c1 [Example 376, N-(5-(dimethylamino)-2′,4′-difluoro-[1,1′-biphenyl]-3-yl)-5-(methylsulfonamido)benzofuran-2-carboxamide] |
| > 10 µM | > 10 µM | > 10 µM | CS(=O)(=O)Nc1ccc2cc(C(=O)Nc3cc(-c4cccc(O)n4)cc(-c4ccc(F)cc4F)c3)[nH]c2c1 [Example 384, N-(2′,4′-difluoro-5-(6-hydroxypyridin-2-yl)-[1,1′-biphenyl]-3-yl)-6-(methylsulfonamido)-1H-indole-2-carboxamide] |
| 8.2 µM | > 10 µM | > 10 µM | CS(=O)(=O)Nc1ccc2cc(C(=O)Nc3cc(C(=O)N4CCOCC4)cc(-c4ccc(F)cc4F)c3)[nH]c2c1 [Example 321, N-(2′,4′-difluoro-5-(morpholine-4-carbonyl)-[1,1′-biphenyl]-3-yl)-6-(methylsulfonamido)-1H-indole-2-carboxamide] |
| > 10 µM | 6.1 µM | > 10 µM | CC(C)(c1cccc(CN2CCNCC2)c1)c1cc(Br)cc(NC(=O)c2cc3ccc(NS(C)(=O)=O)cc3[nH]2)c1 [Example 119, N-(3-bromo-5-(2-(3-(piperazin-1-ylmethyl)phenyl)propan-2-yl)phenyl)-6-(methylsulfonamido)-1H-indole-2-carboxamide] |
| 0.34 µM | 0.052 µM | 0.82 µM | COc1cc(NC(=O)c2cc3ccc(NS(C)(=O)=O)cc3[nH]2)cc(C(C)(C)c2cccc(OC(F)(F)F)c2)c1 [Example 4, N-(3-methoxy-5-(2-(3-(trifluoromethoxy)phenyl)propan-2-yl)phenyl)-6-(methylsulfonamido)-1H-indole-2-carboxamide] |
| 0.045 µM | 0.028 µM | 0.17 µM | CC(C)(c1cc(Br)cc(NC(=O)c2cc3ccc(NS(C)(=O)=O)cc3[nH]2)c1)c1cc(OC(F)(F)F)ccc1F [Example 23, N-(3-bromo-5-(2-(2-fluoro-5-(trifluoromethoxy)phenyl)propan-2-yl)phenyl)-6-(methylsulfonamido)-1H-indole-2-carboxamide] |
| 0.34 µM | 0.46 µM | 3.5 µM | CN(C)c1cc(NC(=O)c2cc3ccc(NS(C)(=O)=O)cc3[nH]2)cc(-c2ccc(F)cc2F)c1 [Example 372, N-(5-(dimethylamino)-2′,4′-difluoro-[1,1′-biphenyl]-3-yl)-6-(methylsulfonamido)-1H-indole-2-carboxamide] |
| 2.4 µM | 1.17 µM | 3.5 µM | CS(=O)(=O)Nc1ccc2cc(C(=O)Nc3cccc(C(F)(F)c4ccccc4)c3)[nH]c2c1 [Example 387, N-(3-(difluoro(phenyl)methyl)phenyl)-6-(methylsulfonamido)-1H-indole-2-carboxamide] |
| 1.5 µM | 1.2 µM | 5.9 µM | Cc1c(C(=O)Nc2cc(Br)cc(-c3ccc(F)cc3F)c2)sc2cc(NS(C)(=O)=O)ccc12 [Example 309, N-(5-bromo-2′,4′-difluoro-[1,1′-biphenyl]-3-yl)-3-methyl-6-(methylsulfonamido)benzo[b]thiophene-2-carboxamide] |
